Assays:
Type in all cases: cell-based
STING variants (WT) = target: T1, STING variants (WT) (Homo sapiens, UniProt Q86WV6); assay: SEAP reporter assay in HEK-Blue ISG KO-STING cells transfected with STING WT variant (Method 1); conditions: 24 h
T1 construct: host or cells: HEK-Blue ISG KO-STING cells (Invivogen, hkb-kostg)
Excerpt: (§1) Example I: STING Variants (WT & HAQ) Activation by Compounds in HEK-Blue™ ISG KO-STING Cells (Method 1)
(§2) Activation of STING can be determined using a SEAP reporter assay in HEK-Blue™ ISG KO-STING cells (Invivogen, cat #hkb-kostg) transfected with plasmids expressing STING variants (WT & HAQ) (referred to WO2017/175147A1). STING variants (WT & HAQ) vector were constructed based on STING-232H vector (Origene, RC208418). GFP vector (VT2069) was bought from Youbio. The detailed protocol as follows: HEK-Blue™ ISG KO-STING cells were harvest and seeding into 96 well plate, the final cell number was 0.8×10^5 cells/well. Transfections were prepared using Lipofectamine 2000 (Invitrogen, Cat #11668-027) following the manufacturer's instructions (Lipo2000:DNA=1:10), 20 ul of transfection suspension containing 1 ng STING vector was added to cell culture plate and incubated at 37° C., 5% CO2 for 24 h. After 24 hours incubation, compounds were added at proper concentration, and the final DMSO concentration was 0.5%. After 24 h incubation, the supernatant was collected to detect SEAP signal using Great EscAPe SEAP chemiluminescence KIT (Clontech, cat #631738) and cells were collected to detect cell viability using CellTiter-Glo Luminescent Cell Viability Assay (Promega, cat #G7573) following the manufacturer's instructions. The data were described by the ratio of the stimulating signal of compounds to 0.5% DMSO.

STING variants (HAQ) = target: T2, STING variants (HAQ) (Homo sapiens, UniProt Q86WV6, G230A/R293Q/R71H); assay: SEAP reporter assay in HEK-Blue ISG KO-STING cells transfected with STING HAQ variant (Method 1); conditions: 24 h
T2 construct: host or cells: HEK-Blue ISG KO-STING cells (Invivogen, hkb-kostg)
Excerpt: as §1, §2

STING = target: T3, STING (Homo sapiens, UniProt Q86WV6, G230A/H232R/R293Q/R71H); assay: IFNβ release from THP1 by STING activation (hIFNβ ELISA); conditions: THP1 cells, 24 h, IFN-β in supernatant; inactive = IFNβ not detected at the maximum concentration of compounds
T3 construct: THP1 was purchased from National Collection of Authenticated Cell Cultures (Cat #TCHu 57); host or cells: THP1
Method: Example III: Compound Stimulate THP1 to Release IFNβ by STING Activation
In this assay, activation of STING by compounds was evaluated by detecting their ability to stimulate the secretion of IFN-β (interferon-beta) from THP1. THP1 was purchased from National Collection of Authenticated Cell Cultures (Cat #TCHu 57). The top dose of compounds was setted according to their solubility. First, Compounds were 3 times diluted with medium, 8-dose points in total. The final DMSO concentration was 0.2%. THP1 during the logarithmic phase was resuspended to 2×10^6 cells/ml in assay medium. The THP1-cell suspension was dispensed into a 96-well U bottom plate containing 50 ul of compound diluted in medium. After 24 h incubation at 37° C., 5% CO2, the supernatant was collected. The concentration of IFN-β in the supernatant was measured using a human IFNβ ELISA KIT (R&D, DY814-05). The data was fitted with GraphPad Prism or XLfit to calculate EC50 values.

[1] = compound concentration 15.65 μM
[2] = compound concentration 169.6 μM

T2 sequence (Q86WV6 whole entry R71H/G230A/R293Q): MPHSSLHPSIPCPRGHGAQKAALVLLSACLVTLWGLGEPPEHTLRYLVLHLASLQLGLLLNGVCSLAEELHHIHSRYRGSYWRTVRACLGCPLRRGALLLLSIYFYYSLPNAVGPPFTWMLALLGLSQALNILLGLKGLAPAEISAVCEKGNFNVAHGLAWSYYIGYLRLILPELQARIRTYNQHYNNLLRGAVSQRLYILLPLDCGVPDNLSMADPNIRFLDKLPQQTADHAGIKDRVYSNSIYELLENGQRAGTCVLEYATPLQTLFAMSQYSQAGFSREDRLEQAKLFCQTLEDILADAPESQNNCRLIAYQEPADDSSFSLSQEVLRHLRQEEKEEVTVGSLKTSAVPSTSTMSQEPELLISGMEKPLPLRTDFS
T3 sequence (Q86WV6 whole entry R71H/G230A/H232R/R293Q): as the sequence (Q86WV6 whole entry R71H/G230A/R293Q) above, with H232R counted along it

Structure (SMILES) | Fold change related to DMSO control, WT (STING variants (WT); compound concentration 25 μM) | Fold change related to DMSO control, HAQ (STING variants (HAQ); compound concentration 25 μM) | EC50 (STING) | also measured
CCn1nc(C)cc1C(=O)Nc1nc2cc(C(N)=O)cc3c2n1[C@@H](CCCNC(=O)OCc1cccnc1)CO3 [Example 32, Pyridin-3-ylmethyl (S)-(3-(7-carbamoyl-2-(1-ethyl-3-methyl-1H-pyrazole-5-carboxamido)-3,4-dihydro-5-oxa-1,2a-diazaacenaphthylen-3-yl)propyl)carbamate] | 1.45 fold | 2.88 fold |  | hIFNβ ELISA (EC50, μM) (STING): inactive
CCn1nc(C)cc1C(=O)Nc1nc2cc(C(N)=O)cc3c2n1C(C)(C)CO3 [Example 21, 2-(1-Ethyl-3-methyl-1H-pyrazole-5-carboxamido)-3,3-dimethyl-3,4-dihydro-5-oxa-1,2a-diazaacenaphthylene-7-carboxamide] | 2.18 fold | 8.87 fold |  | 
CCn1nc(C)cc1C(=O)Nc1nc2cc(C(N)=O)cc3c2n1[C@@H](COCc1ccccc1)CO3 [Example 30, (S)-3-((Benzyloxy)methyl)-2-(1-ethyl-3-methyl-1H-pyrazole-5-carboxamido)-3,4-dihydro-5-oxa-1,2a-diazaacenaphthylene-7-carboxamide] | 1.63 fold | 35.09 fold |  | 
CCn1nc(C)cc1C(=O)Nc1nc2cc(C(N)=O)cc3c2n1[C@@H](CCNC(=O)OCCc1ccccc1)CO3 [Example 42, Phenethyl (S)-(2-(7-carbamoyl-2-(1-ethyl-3-methyl-1H-pyrazole-5-carboxamido)-3,4-dihydro-5-oxa-1,2a-diazaacenaphthylen-3-yl)ethyl)carbamate] |  |  |  | Fold change related to DMSO control, WT (STING variants (WT); compound concentration 21.4 μM): 1.10 fold; Fold change related to DMSO control, HAQ (STING variants (HAQ); compound concentration 21.4 μM): 10.52 fold
CCn1nc(C)cc1C(=O)Nc1nc2cc(C(N)=O)cc3c2n1[C@@H](CCNC(=O)OCc1ccccc1)CO3 [Example 14, Benzyl (S)-(2-(7-carbamoyl-2-(1-ethyl-3-methyl-1H-pyrazole-5-carboxamido)-3,4-dihydro-5-oxa-1,2a-diazaacenaphthylen-3-yl)ethyl)carbamate] | 1.59 fold | 27.44 fold |  | 
CCn1nc(C)cc1C(=O)Nc1nc2cc(C(N)=O)cc3c2n1[C@@H](CCNC(=O)/C=C/c1ccc(C#N)cc1)CO3 [Example 37, (S,E)-3-(2-(3-(4-cyanophenyl)acrylamido)ethyl)-2-(1-ethyl-3-methyl-1H-pyrazole-5-carboxamido)-3,4-dihydro-5-oxa-1,2a-diazaacenaphthylene-7-carboxamide] |  |  |  | Fold change related to DMSO control, WT (STING variants (WT); compound concentration 3.11 μM): 1.07 fold; Fold change related to DMSO control, HAQ (STING variants (HAQ); compound concentration 3.11 μM): 1.85 fold
CCn1nc(C)cc1C(=O)Nc1nc2cc(C(N)=O)cc3c2n1C(C)(CO)CO3 (stereo not drawn) [Example 3, 2-(1-Ethyl-3-methyl-1H-pyrazole-5-carboxamido)-3-(hydroxymethyl)-3-methyl-3,4-dihydro-5-oxa-1,2a-diazaacenaphthylene-7-carboxamide] |  |  |  | Fold change related to DMSO control, WT (STING variants (WT); compound concentration 125 μM): 1.79 fold; Fold change related to DMSO control, HAQ (STING variants (HAQ); compound concentration 125 μM): 3.54 fold
CCOC(=O)/C=C/C1(C)COc2cc(C(N)=O)cc3nc(NC(=O)c4cc(C)nn4CC)n1c23 (stereo not drawn) [Example 5, Ethyl (E)-3-(7-carbamoyl-2-(1-ethyl-3-methyl-1H-pyrazole-5-carboxamido)-3-methyl-3,4-dihydro-5-oxa-1,2a-diazaacenaphthylen-3-yl)acrylate] |  |  |  | Fold change related to DMSO control, WT (STING variants (WT); [1]): 1.52 fold; Fold change related to DMSO control, HAQ (STING variants (HAQ); [1]): 1.20 fold
CCn1nc(C)cc1C(=O)Nc1nc2cc(C(N)=O)cc3c2n1[C@@H](CCCCNC(=O)OCc1ccccc1)CO3 [Example 17, Benzyl (S)-(4-(7-carbamoyl-2-(1-ethyl-3-methyl-1H-pyrazole-5-carboxamido)-3,4-dihydro-5-oxa-1,2a-diazaacenaphthylen-3-yl)butyl)carbamate] | 1.76 fold | 37.64 fold |  | 
CCn1nc(C)cc1C(=O)Nc1nc2cc(C(N)=O)cc3c2n1[C@@H](CCNC(=O)OC(C)(C)C)CO3 [Example 6, tert-Butyl (S)-(2-(7-carbamoyl-2-(1-ethyl-3-methyl-1H-pyrazole-5-carboxamido)-3,4-dihydro-5-oxa-1,2a-diazaacenaphthylen-3-yl)ethyl)carbamate] |  |  |  | Fold change related to DMSO control, WT (STING variants (WT); [2]): 0.76 fold; Fold change related to DMSO control, HAQ (STING variants (HAQ); [2]): 4.41 fold
CCn1nc(C)cc1C(=O)Nc1nc2cc(C(N)=O)cc3c2n1C(C)(CN(C)CCc1ccccc1)CO3 (stereo not drawn) [Example 29, 2-(1-Ethyl-3-methyl-1H-pyrazole-5-carboxamido)-3-methyl-3-((methyl(phenethyl)amino)methyl)-3,4-dihydro-5-oxa-1,2a-diazaacenaphthylene-7-carboxamide] | 1.06 fold | 1.14 fold |  | 

Continued, in another order:

Fold change related to DMSO control, WT (STING variants (WT); compound concentration 25 μM) | Fold change related to DMSO control, HAQ (STING variants (HAQ); compound concentration 25 μM) | EC50 (STING) | Structure (SMILES) | also measured
2.78 fold | 25.85 fold |  | CCn1nc(C)cc1C(=O)Nc1nc2cc(C(N)=O)cc3c2n1[C@@H](CCNC(=O)/C=C/c1ccccc1OC)CO3 [Example 39, (S,E)-2-(1-ethyl-3-methyl-1H-pyrazole-5-carboxamido)-3-(2-(3-(2-methoxyphenyl)acrylamido)ethyl)-3,4-dihydro-5-oxa-1,2a-diazaacenaphthylene-7-carboxamide] | 
 |  | 11.8 µM | CCn1nc(C)cc1C(=O)Nc1nc2cc(C(N)=O)cc3c2n1CC(C)(C)CN3CCCOC [Example 74, 1-(1-Ethyl-3-methyl-1H-pyrazole-5-carboxamido)-6-(3-methoxypropyl)-8,8-dimethyl-6,7,8,9-tetrahydro-2,6,9a-triazabenzo[cd]azulene-4-carboxamide] | 
2.96 fold | 22.76 fold |  | CCn1nc(C)cc1C(=O)Nc1nc2cc(C(N)=O)cc3c2n1[C@@H](CCNC(=O)/C=C/c1cccc(F)c1)CO3 [Example 38, (S,E)-2-(1-ethyl-3-methyl-1H-pyrazole-5-carboxamido)-3-(2-(3-(3-fluorophenyl)acrylamido)ethyl)-3,4-dihydro-5-oxa-1,2a-diazaacenaphthylene-7-carboxamide] | 
 |  | 19 µM | CCn1nc(C)c(F)c1C(=O)Nc1nc2cc(C(N)=O)cc3c2n1CC1(CCC1)CO3 [Example 78, 1-(1-Ethyl-4-fluoro-3-methyl-1H-pyrazole-5-carboxamido)-7H,9H-6-oxa-2,9a-diazaspiro[benzo[cd]azulene-8,1′-cyclobutan]-1,2a,2a1(5a),4-tetraene-4-carboxamide] | 
 |  | 6.8 µM | CCn1nc(C)cc1C(=O)Nc1nc2cc(C(N)=O)cc3c2n1CC(C)(C)CN3CCOC [Example 73, 1-(1-ethyl-3-methyl-1H-pyrazole-5-carboxamido)-6-(2-methoxyethyl)-8,8-dimethyl-6,7,8,9-tetrahydro-2,6,9a-triazabenzo[cd]azulene-4-carboxamide] | 
 |  | 7.7 µM | CCn1nc(C)cc1C(=O)Nc1nc2cc(C(N)=O)cc3c2n1CC(C)(C)CN3CCOCc1ccccc1 [Example 75, 6-(2-(benzyloxy)ethyl)-1-(1-ethyl-3-methyl-1H-pyrazole-5-carboxamido)-8,8-dimethyl-6,7,8,9-tetrahydro-2,6,9a-triazabenzo[cd]azulene-4-carboxamide] | 
 |  | 20.8 µM | CCn1nc(C)cc1C(=O)Nc1nc2cc(C(N)=O)cc3c2n1CC1(CCC1)CO3 [Example 77, 1-(1-ethyl-3-methyl-1H-pyrazole-5-carboxamido)-7H,9H-6-oxa-2,9a-diazaspiro[benzo[cd]azulene-8,1′-cyclobutan]-1,2a,2a1(5a),4-tetraene-4-carboxamide] | 
 |  | 9.9 µM | CCn1nc(C)cc1C(=O)Nc1nc2cc(C(N)=O)cc3c2n1CC(C)(C)CN3CCO [Example 76, 1-(1-ethyl-3-methyl-1H-pyrazole-5-carboxamido)-6-(2-hydroxyethyl)-8,8-dimethyl-6,7,8,9-tetrahydro-2,6,9a-triazabenzo[cd]azulene-4-carboxamide] | 

Source: patent publication US20240287093A1, “HIGH ACTIVITY STING PROTEIN AGONIST” (ADLAI NORTYE BIOPHARMA CO., LTD., priority 2018, published 2024)
